Measurements from patent US9765118B2, “Pharmaceutical composition for cancer prevention and treatment containing peptide originated from C12orf59 protein as an active ingredient” (KOREA RESEARCH INSTITUTE OF BIOSCIENCE AND BIOTECHNOLOGY, priority 2010, dated 2017).

Tests used:
[1] = tested on: SW480 cells; experiment: Transwell invasion assay with peptide-treated SW480 cells; type: cell-based, human; details: for invasion of colorectal cancer cells compared to the control: 50 μM, control DMSO 0.25%; for invasion of cells reduced by: FIGS. 18 and 19, concentration not given
Procedure: (§1) Particularly, the porous membrane of 24-well transwell plate (8 μm pore size; Costar, USA) was coated with 100 μl of matrigel (BD Biosciences, USA) diluted in serum free medium at the concentration of […], which stood at room temperature for 1 hour for fixing. The lower part of the transwell plate was coated with 100 μl of collagen type I (Sigma) at the concentration of […]. The said collagen type I was used as a chemoattractant. 1×10^4 cells resuspended in serum free medium were distributed in the upper chamber of the said 24-well transwell plate, followed by culture at 37° C. with 5% CO2 for 48 hours, during which the cells were induced to migrate from the upper chamber to the lower chamber. The non-migrated cells were eliminated from the surface of the upper chamber. […] The excessive crystal violet solution was washed off with distilled water. The selected area (×100) was photographed. The number of the cells migrated was counted from 5 different selected areas. Then, mean value and standard error were obtained.
SW480 colorectal cancer cells were treated with peptides originated from C12orf59, and effects of the peptids on invasion of the cells were analyzed.

[2] = tested on: SW480sub cells; experiment: Transwell matrigel invasion assay with peptide-treated SW480sub cells; type: cell-based, human; details: for invasion reduced compared to vehicle control: peptide 50 μM; for colorectal cancer cell invasion reduced by / inhibitory effects on invasion: peptide 100 μg/ml, 48 hours
Procedure: SW480sub was subpopulation of SW480 having high in vitro invasion and in vivo metastasis ability. The effect of each peptide on colorectal cancer cell invasion was analyzed using the said SW480sub. SW480sub cells were mixed with each peptide, followed by pre-incubation for 30 minutes.
as §1

[3] = tested on: colorectal cancer cells; experiment: Cellular survival rate of colorectal cancer cells by absorbance (Experimental Example 4); type: cell-based; details: as in Example <3-2>
Procedure: (§2) Particularly, 100 μl of poly-HEMA (Sigma) at the concentration of 12 mg/ml was loaded in 96-well plate, which stood in clean bench for 1 day, followed by drying. On the next day, the plate was coated with Poly-HEMA once again. Cells were distributed in the poly-HEMA coated plate by 100 μl/well (1×10^4 cells/well). At that time, serum-free medium was used. 6 days later, 10 μl of CCK-8 reagent (Dojindo cat. CK04-13) was added to each well, followed by reaction for 3 hours. Then, OD450 was measured.
In particular, a cellular survival rate was measured using absorbance in the same manner as in Example <3-2>.

[4] = tested on: SW480 cells; experiment: Cell survivability under anchorage independent condition (polyHEMA, CCK-8, OD450) with peptides; type: cell-based, human; details: 6 days, serum-free
Procedure: 6 days later, cell survivability was measured by colorimetric technique under the anchorage independent condition.
as §2

[5] = tested on: C8161 (human melanoma) cell line; experiment: Transwell invasion assay with C8161 cells in the presence of the peptide; type: cell-based; details: 24 h
Procedure: Specifically, C8161 (human melanoma) cell line was cultured in DMEM containing 10% FBS, penicillin-streptomycin, L-glutamine, sodium pyruvate and glucose. C8161 cells (1×10^4) in the presence of the peptide were plated in serum-free medium on 24-well Transwell inserts (8 μm pore size; Costar, USA) coated with 25 μg of […] (BD Biosciences, USA). The underside of the insert was coated with 100 μl of collagen type I (Sigma) at the concentration of 5 μg/ml. […] The number of cells that had invaded was counted in five representative fields per insert. Then, mean value and standard deviation were obtained.

| Substance | invasion of colorectal cancer cells compared to the control [1] | invasion of cells reduced by [1] [%] | invasion reduced compared to vehicle control [2] [%] | survival of colorectal cancer cells [3] | other results |
| --- | --- | --- | --- | --- | --- |
| CLTTDWVH (A/B common) | effects similar to those of A_C-term2 and B_C-term2 |  |  |  |  |
| EENCGNP (A_C-term2) | inhibited the invasion | 38 | 46 |  | colorectal cancer cell invasion reduced by / inhibitory effects on invasion [2]: about 99% |
| EENCGNPEHCLT (A_C-term1) |  | 48 | 48 | inhibitory effects on the survival of colorectal cancer cells in a concentration-dependent manner | colorectal cancer cell invasion reduced by / inhibitory effects on invasion [2]: about 92% |
| EENCGNPEHCLTTDWVH (A_intact) [17 amino acid peptide from the extracellular domain of C12orf59 isoform 1] |  |  | 40 |  | cell survivability reduced by [4]: 82%; C8161 invasion reduced by ([5]; 30 μg/ml): 10%; C8161 invasion reduced by ([5]; 100 μg/ml): 45% |
| NPEHCLT (A_Cen) |  | 49 |  |  |  |
| NPEHCLTTDWVH (A_N-term) |  | 39 |  | inhibitory effects on the survival of colorectal cancer cells in a concentration-dependent manner |  |
| PCCISS (B_Cen2) | superior inhibitory effects |  |  |  |  |
| PCCISSCCLTTDWVH (B_N-term) |  |  |  | inhibitory effects on the survival of colorectal cancer cells in a concentration-dependent manner |  |
| SWRPQPCCIS (B_C-term2) | inhibited the invasion | 39 | 50 |  |  |
| SWRPQPCCISSCCLT (B_C-term1) |  |  |  | inhibitory effects on the survival of colorectal cancer cells in a concentration-dependent manner |  |
